# Measurements taken from patent US7528252B2, “Derivatives of triazoly-imidazopyridine useful as ligands of the adenosine A2a receptor and their use as medicaments” (Sigma-Tau Industrie Farmaceutiche Riunite S.p.A., priority 2002, dated 2009).
# How the values were obtained:
# [1] = literature (Ongini et al.); cited from earlier work
# CD1 male mice [2] = test: Capacity of the products to induce catalepsy in mice; format: in vivo; conditions: 60 mg/kg, endoperitoneal, 30 minutes prior to the test
# Experimental: 10 CD1 male mice were used per group. For this test, a steel bar, 10 cm long, was placed at a height of 4.5 cm above the support surface. Onto this, were placed the front legs of the animals. The presence of catalepsy was determined by measuring the time (in seconds) the animal remained in the posture placed. Later, this parameter was placed relatively, on a scale of rising values (0 to 5) through which, the degree of catalepsy determined in both control animals and in these subjected to treatment with the substances under test could be proportionately expressed.
# The reference products and these in this study were administered endoperitoneally, in a volume of 10 ml/kg, 30 minutes prior to the test.
# Except for CGS 21680 (reference compound) which was dissolved in 0.9% NaCl, the products in the study and the control antagonist ZM 241385 were solubilised in DMSO and then diluted in Cremofor EL and 0.9% NaCl (final concentrations: DMSO 15%, Cremofor EL 15%, NaCl 0.9%).
# [3] = El Yacoubi M; et al Eur. J. Pharm. 401 (2000) 63-77; cited from earlier work
# CD1 male mice [4] = test: Effects on spontaneous motor activity in mice; format: in vivo; conditions: mean ± s.e.
# Experimental: For this study, type CD1 male mice (n=8) were used. The effects of the products under study and of the reference compounds were evaluated using an apparatus consisting of a Plexiglas cage (40 cm×40 cm) surrounded by a series of photocells which monitor the movements of the animals placed inside, connected a computerised system, through which, the signals are collected and later elaborated.
# Tests were carried out, after endoperitoneal administration of the products. 15 minutes after treatment, the treated animals, alternating with the controls, were placed inside the cage so as to record their spontaneous movements over a total period of 45 minutes broken down into two observation intervals (15′-45′ and 45′-60′, with respect to the time after treatment).
# To examine the possible effects of the compounds studied on motor activity, the following parameters were considered: horizontal activity, vertical activity: total distance.
# Except for CGS 21680 (reference compound, described in EP 0 277 917, Ciba-Geigy) which was dissolved in 0.9% NaCl, the products studied were solubilised in DMSO and then diluted in Cremofor EL and 0.9% NaCl (final concentrations: DMSO 15%, Cremofor EL 15%, NaCl 0.9%.
# [5] = 15 mg/kg endoperitoneal, interval 15′-45′ from treatment
# [6] = 15 mg/kg endoperitoneal, interval 45′-60′ from treatment
# [7] = 30 mg/kg endoperitoneal, interval 15′-45′ from treatment
# [8] = 30 mg/kg endoperitoneal, interval 45′-60′ from treatment
# [9] = 60 mg/kg endoperitoneal, interval 15′-45′ from treatment
# [10] = 60 mg/kg endoperitoneal, interval 45′-60′ from treatment
structure (smiles),measurement,setting,value
CCn1c(=O)c2c(nc(/C=C/c3ccc(OC)c(OC)c3)n2C)n(CC)c1=O [KW-6002],photoisomerisation of the ethylenic bond (stability),[1],subject to loss of activity through photoisomerisation of the ethylenic bond
"Nc1nc(NCCc2ccc(O)cc2)nc2nc(-c3ccco3)nn12 [ZM 241385, reference compound]",appearance of catalepsy in mice (FIG. 1),CD1 male mice [2],"none of them brought about the appearance of catalepsy in mice, analogous to the reference antagonist"
same,bioavailability in vivo,[3],very low bioavailability
same,Horizontal activity,CD1 male mice [4]; [5],8706 ± 473
same,Total distance,CD1 male mice [4]; [5],2280 ± 242
same,Vertical activity,CD1 male mice [4]; [5],680 ± 64
same,Horizontal activity,CD1 male mice [4]; [6],4148 ± 241
same,Total distance,CD1 male mice [4]; [6],1022 ± 130
same,Vertical activity,CD1 male mice [4]; [6],362 ± 78
same,Horizontal activity,CD1 male mice [4]; [7],7035 ± 709
same,Total distance,CD1 male mice [4]; [7],1725 ± 186
same,Vertical activity,CD1 male mice [4]; [7],613 ± 102
same,Horizontal activity,CD1 male mice [4]; [8],3505 ± 375
same,Total distance,CD1 male mice [4]; [8],783 ± 165
same,Vertical activity,CD1 male mice [4]; [8],282 ± 37
same,Horizontal activity,CD1 male mice [4]; [9],7790 ± 980
same,Total distance,CD1 male mice [4]; [9],2250 ± 401
same,Vertical activity,CD1 male mice [4]; [9],570 ± 129
same,Horizontal activity,CD1 male mice [4]; [10],4241 ± 407
same,Total distance,CD1 male mice [4]; [10],1131 ± 158
same,Vertical activity,CD1 male mice [4]; [10],264 ± 56
